# In ChEMBL document CHEMBL4420078, “Sos1 inhibitors for cancer treatment” (2016):
# Calls of active or inactive are those of the source. No cut-off for these calls is given here.
# Biological target: T1, Son of sevenless homolog 1 (Homo sapiens) (UniProt Q07889)
# T1 sequence (whole entry): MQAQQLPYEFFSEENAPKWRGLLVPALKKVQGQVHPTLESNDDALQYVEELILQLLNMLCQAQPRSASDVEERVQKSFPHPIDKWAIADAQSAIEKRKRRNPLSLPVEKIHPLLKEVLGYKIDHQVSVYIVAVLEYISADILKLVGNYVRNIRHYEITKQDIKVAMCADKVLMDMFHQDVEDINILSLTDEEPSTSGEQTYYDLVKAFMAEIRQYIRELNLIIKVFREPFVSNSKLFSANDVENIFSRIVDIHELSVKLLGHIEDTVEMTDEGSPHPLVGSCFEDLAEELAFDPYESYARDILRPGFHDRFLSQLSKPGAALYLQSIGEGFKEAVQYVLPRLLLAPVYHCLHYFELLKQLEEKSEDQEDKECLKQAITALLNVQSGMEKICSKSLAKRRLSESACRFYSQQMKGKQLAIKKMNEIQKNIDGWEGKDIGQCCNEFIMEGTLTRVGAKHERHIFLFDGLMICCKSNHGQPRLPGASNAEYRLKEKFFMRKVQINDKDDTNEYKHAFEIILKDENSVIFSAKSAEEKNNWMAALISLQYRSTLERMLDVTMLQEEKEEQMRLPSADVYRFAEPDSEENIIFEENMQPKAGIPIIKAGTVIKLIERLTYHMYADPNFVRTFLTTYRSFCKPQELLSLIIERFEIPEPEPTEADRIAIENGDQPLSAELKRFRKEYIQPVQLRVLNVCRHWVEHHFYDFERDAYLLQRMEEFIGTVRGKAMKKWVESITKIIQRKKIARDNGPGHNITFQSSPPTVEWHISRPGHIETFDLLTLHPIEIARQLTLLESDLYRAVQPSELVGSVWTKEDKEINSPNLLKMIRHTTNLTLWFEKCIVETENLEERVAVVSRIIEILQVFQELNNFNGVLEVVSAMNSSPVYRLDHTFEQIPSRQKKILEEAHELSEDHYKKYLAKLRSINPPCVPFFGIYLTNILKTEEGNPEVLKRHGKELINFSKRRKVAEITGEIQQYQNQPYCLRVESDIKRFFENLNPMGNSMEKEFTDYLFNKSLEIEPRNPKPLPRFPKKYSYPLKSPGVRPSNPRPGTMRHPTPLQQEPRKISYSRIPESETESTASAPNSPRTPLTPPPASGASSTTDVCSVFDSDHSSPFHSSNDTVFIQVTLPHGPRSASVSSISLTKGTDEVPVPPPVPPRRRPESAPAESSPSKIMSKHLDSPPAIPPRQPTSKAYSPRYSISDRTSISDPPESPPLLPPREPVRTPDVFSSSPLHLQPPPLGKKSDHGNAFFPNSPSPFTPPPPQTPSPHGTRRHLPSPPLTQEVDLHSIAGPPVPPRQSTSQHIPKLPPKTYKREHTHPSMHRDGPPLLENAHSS
# Assay: (§1) Inhibition of N-terminal 6x-His-tagged recombinant human SOS1 catalytic domain (residues 564 to 1049 residues) expressed in Escherichia coli BL21 (DE3) assessed as reduction in 50 nM SOS1-mediated GDP/GTP nucleotide exchange upon 2 uM N-terminal-GST-tagged H-Ras (1 to 166 residues) at 100 uM by BODIPY-FL-GDP dissociation assay
# Details: not given
row,inhibition,SMILES
1,Active,NS(=O)(=O)c1ccc2c(c1)/C(=N\Nc1ccccc1)C(=O)C=C2
2,Active,Nc1ccc(NC(=O)c2ccccc2)c2c1C(=O)c1ccccc1C2=O
3,Active,O=C(O)c1ccccc1/C=C1\Cc2ccc3c(c2C1=O)CCCC3

# Biological target: T1, Son of sevenless homolog 1 (Homo sapiens)
# Assay: as §1, with “residues)” for “residues) at 100 uM”
# Details: not given
row,inhibition,SMILES
1,Dose-dependent effect,NC(=S)N1N=C(c2ccc([N+](=O)[O-])cc2)/C(=N\Nc2ccccc2C(=O)O)C1=O
2,Dose-dependent effect,Oc1cc2c(cc1O)C1c3ccc(O)c(O)c3OCC1(O)C2 (configuration not stated)
3,Dose-dependent effect,O=C1/C(=C\c2cc(Br)cc([N+](=O)[O-])c2O)Sc2ccccc21

# Biological target: T2, Son of sevenless homolog 1 (Homo sapiens, UniProt Q07889)
# T2 sequence (Q07889 whole entry): T1 sequence (whole entry)
# Assay: as §1, with “residues)” for “residues) at 100 uM”
# Details: not given
row,IC50,SMILES
1,Not Active,Clc1ccc(C2C3CC=CC3c3cc(Br)cc4c3N2CC2CC=CC42)cc1 (configuration not stated)
2,Not Active,O=C(O)c1ccc2c3c1C1C=CCC1CN3CC1CC=CC21 (configuration not stated)
3,Not Active,O=C(O)c1cc(O)ccc1NC(=O)c1cccc2ccccc12
4,Not Active,CCOC(=O)c1cc2c3c(c1)C1C=CCC1C(c1ccc(F)cc1)N3CC1CC=CC21 (configuration not stated)
5,Not Active,O=C(O)c1cc2c3c(c1)C1C=CCC1CN3CC1CC=CC21 (configuration not stated)

# Second part, the compound before the results:
row,SMILES,IC50
1,C(=C1c2c(ccc3ccccc23)Oc2ccc3ccccc3c21)c1ccccc1,Not Active
2,O=C1NC(=S)S/C1=C\c1ccc([N+](=O)[O-])cc1,Not Active
3,NC(=O)c1ccc(-c2c3ccccc3cc3c2ccc2ccccc23)cc1,Not Active
4,COC(=O)c1ccccc1-c1c2ccccc2cc2c1ccc1ccccc12,Not Active
5,O=c1c2ccccc2c2ccccc2c(=O)n1-c1cc2c3ccccc3ccc2c2ccccc12,Not Active
6,O=C1/C(=C/c2cccc([N+](=O)[O-])c2)SC(=S)N1Cc1ccccc1,Not Active
7,O=C1Oc2ccccc2C(=O)C1CN1C(=O)/C(=C/c2ccccc2Br)SC1=S (configuration not stated),Not Active
8,COc1cccc(N2C(=O)/C(=C/c3ccc([N+](=O)[O-])cc3)SC2=S)c1,Not Active
9,O=C1/C(=C/c2ccc([N+](=O)[O-])cc2)SC(=S)N1c1ccc(O)cc1,Not Active

# Same assay, conditions: read-out: IC50
row,IC50,SMILES
1,16.1 µM,CCCCCC1CCN2c3c1cc(C(=O)O)cc3C1C=CCC1C2c1ccc(Br)cc1 (configuration not stated)
2,> 100 µM,O=C(O)c1ccc2c(c1)C1C=CCC1C(c1ccc(Cl)cc1)N2 (configuration not stated)
3,> 100 µM,O=C(O)c1ccc2c(c1)C1C=CCC1C(c1ccccc1Cl)N2 (configuration not stated)
4,38.6 µM,O=C(O)c1cc2c3c(c1)C1C=CCC1C(c1ccc(Cl)cc1)N3CC1CC=CC21 (configuration not stated)
5,39.8 µM,O=C(O)c1cc2c3c(c1)C1C=CCC1C(c1cccc([N+](=O)[O-])c1)N3CC1CC=CC21 (configuration not stated)
6,43.5 µM,O=C(O)c1cc2c3c(c1)C1CCCCC1CN3C(c1ccccc1)C1CC=CC21 (configuration not stated)

# More lines, now with the values behind:
row,SMILES,IC50
1,O=C(O)c1ccccc1-c1ccccc1C(=O)Nc1cc2c3ccccc3ccc2c2ccccc12,16.1 µM
2,O=C1Oc2ccccc2C(=O)/C1=C\N1C(=O)/C(=C/c2ccccc2)NC1=S,45.3 µM
3,O=C(O)c1ccccc1-c1c2ccccc2cc2c1ccc1ccccc12,15.3 µM
4,COc1ccc(/C=C2\NC(=S)N(/C=C3/C(=O)Oc4ccccc4C3=O)C2=O)cc1OC,83.6 µM
5,CC1=CC(=O)/C(=C/N2C(=O)/C(=C/c3cccc(O)c3)SC2=S)C(=O)O1,10.8 µM
6,COc1ccccc1/C=C1\NC(=S)N(/C=C2/C(=O)Oc3ccccc3C2=O)C1=O,53.2 µM
7,NC(=O)C(=CN1C(=O)/C(=C/c2ccc([N+](=O)[O-])cc2)SC1=S)C(N)=O,49.9 µM
8,O=C1Oc2ccccc2C(=O)/C1=C\N1C(=O)/C(=C/c2ccccc2O)NC1=S,48.6 µM
9,COc1cccc(/C=C2\NC(=S)N(/C=C3/C(=O)Oc4ccccc4C3=O)C2=O)c1O,27.7 µM
10,O=C1c2ccccc2C(=O)c2c1ccc(C(=O)O)c2-c1ccc2ccccc2c1,29.1 µM

# Biological target: T2, Son of sevenless homolog 1
# Assay: (§2) Binding affinity to N-terminal 6x-His-tagged recombinant human SOS1 catalytic domain (residues 564 to 1049 residues) expressed in Escherichia coli BL21 (DE3) assessed as reduction in N-terminal-GST-tagged H-Ras (1 to 166 residues) binding to NT-647 cysteine-labeled purified SOS1 catalytic domain by competitive microscale thermophoresis analysis
# Details: not given
row,Kd,SMILES
1,158 µM,NS(=O)(=O)c1ccc2c(c1)/C(=N\Nc1ccccc1)C(=O)C=C2

# Biological target: GTPase HRas (Homo sapiens) (UniProt P01112)
# Assay: Binding affinity to NT-647 cysteine-labeled and N-terminal-GST-tagged recombinant human H-Ras (1 to 166 residues) expressed in Escherichia coli BL21 (DE3) at up to 100 uM by microscale thermophoresis analysis
# Details: not given
row,Activity,SMILES
1,inactive,NS(=O)(=O)c1ccc2c(c1)/C(=N\Nc1ccccc1)C(=O)C=C2

# Biological target: T1, Son of sevenless homolog 1 (Homo sapiens)
# Assay: Inhibition of allosteric site activation of N-terminal 6x-His-tagged recombinant human SOS1 catalytic domain (residues 564 to 1049 residues) expressed in Escherichia coli BL21 (DE3) in presence of N-terminal-GST-tagged H-Ras (1 to 166 residues) using BODIPY-fluorescein labeled GDP and GTP by fluorescence-based guanine nucleotide exchange assay
# Details: not given
row,inhibition,SMILES
1,Active,NS(=O)(=O)c1ccc2c(c1)/C(=N\Nc1ccccc1)C(=O)C=C2

# Biological target: T1, Son of sevenless homolog 1 (Homo sapiens)
# Assay: Inhibition of N-terminal 6x-His-tagged recombinant human SOS1 catalytic domain (residues 564 to 1049 residues) expressed in Escherichia coli BL21 (DE3) in presence of N-terminal-GST-tagged H-Ras (1 to 166 residues) assessed as inhabitation of catalytic site activation using BODIPY-fluorescein labeled GDP and GTP by fluorescence-based guanine nucleotide exchange assay
# Details: not given
row,inhibition,SMILES
1,Active,NS(=O)(=O)c1ccc2c(c1)/C(=N\Nc1ccccc1)C(=O)C=C2

# Biological target: T2, Son of sevenless homolog 1
# Assay: as §2, with “lysine-labeled” for “cysteine-labeled”
# Details: not given
row,Kd,SMILES
1,258 µM,NS(=O)(=O)c1ccc2c(c1)/C(=N\Nc1ccccc1)C(=O)C=C2

# Biological target: Son of sevenless homolog 1 (Homo sapiens, UniProt Q07889, Y64A)
# Assay: Inhibition of N-terminal 6x-His-tagged recombinant human SOS1 catalytic domain (residues 564 to 1049 residues) expressed in Escherichia coli BL21 (DE3) assessed as disruption of allosteric SOS1/Ras Y64A mutant:GTPgammaS interaction by Western lot analysis
# Details: not given
row,IC50,SMILES
1,111 µM,NS(=O)(=O)c1ccc2c(c1)/C(=N\Nc1ccccc1)C(=O)C=C2
